# Measurements as given in ChEMBL document CHEMBL3885861, “Open TG-GATES”.
# Species on record: Rattus norvegicus
# Assay: Open TG-GATES - Regimen: Daily Repeat
# Assay type: toxicity, organism-based, Sprague-Dawley
# Set-up: regimen Daily Repeat, gender Male, age 6 weeks
# Conditions: in vivo, po, route gavage; for APTT / Bas / Eos / Fbg / Hb / Ht / Lym / MCH / MCHC / MCV / Mono / Neu / PT / Plat / RBC / Ret / WBC: tissue Blood; for LIVER: tissue Liver; for A/G / ALP / ALT / AST / BUN / CRE / Ca / Cl / DBIL / GLC / IP / K / LDH / Na / PL / RALB / TBIL / TC / TG / TP / gamma-GTP: tissue Plasma
# [1] = 20 mg/kg, 72 h, dose level Middle, time 3 day
# [2] = 20 mg/kg, […], dose level Middle, time 7 day
# [3] = 20 mg/kg, […], dose level Middle, time 14 day
# [4] = 20 mg/kg, […], dose level Middle, time 28 day
# [5] = 60 mg/kg, 72 h, dose level High, time 3 day
# [6] = 60 mg/kg, […], dose level High, time 7 day
# [7] = 60 mg/kg, […], dose level High, time 14 day
# [8] = 60 mg/kg, […], dose level High, time 28 day
smiles,measurement,setting,value
"O=[N+]([O-])c1ccc(O)c([N+](=O)[O-])c1 [2,4-DINITROPHENOL]",TERMINAL_BW,[1],243.1 g
same,APTT,[1],15.4 s
same,Bas,[1],0%
same,Eos,[1],1.2%
same,Fbg,[1],283.4 mg/dL
same,Hb,[1],13.6 g/dL
same,Ht,[1],40.4%
same,Lym,[1],77%
same,MCH,[1],22.4 pg
same,MCHC,[1],33.7%
same,MCV,[1],66.4 fL
same,Mono,[1],5%
same,Neu,[1],17%
same,PT,[1],11.4 s
same,Plat,[1],131.6 x10_4/uL
same,RBC,[1],609.2 x10_4/ul
same,Ret,[1],7.3%
same,WBC,[1],124.2 x10_2/uL
same,LIVER,[1],12.1 g
same,A/G,[1],2.4
same,ALP,[1],1368.6 IU/L
same,ALT,[1],36.6 IU/L
same,AST,[1],61.6 IU/L
same,BUN,[1],15.2 mg/dL
same,CRE,[1],0.4 mg/dL
same,Ca,[1],11.4 mg/dL
same,Cl,[1],104.2 meq/L
same,DBIL,[1],0.01 mg/dL
same,GLC,[1],182.6 mg/dL
same,IP,[1],7.3 mg/dL
same,K,[1],4.8 meq/L
same,LDH,[1],128.4 IU/L
same,Na,[1],138.2 meq/L
same,PL,[1],165.4 mg/dL
same,RALB,[1],3.9 g/dL
same,TBIL,[1],0.022 mg/dL
same,TC,[1],93 mg/dL
same,TG,[1],134.6 mg/dL
same,TP,[1],5.6 g/dL
same,gamma-GTP,[1],0.2 IU/L
same,TERMINAL_BW,[2],277.1 g
same,TERMINAL_BW,[3],351 g
same,TERMINAL_BW,[4],428.8 g
same,APTT,[2],16.2 s
same,Bas,[2],0%
same,Eos,[2],0.8%
same,Fbg,[2],259.6 mg/dL
same,Hb,[2],13.7 g/dL
same,Ht,[2],40.8%
same,Lym,[2],71.4%
same,MCH,[2],21.3 pg
same,MCHC,[2],33.6%
same,MCV,[2],63.3 fL
same,Mono,[2],9%
same,Neu,[2],19%
same,PT,[2],11.8 s
same,Plat,[2],128 x10_4/uL
same,RBC,[2],644.2 x10_4/ul
same,Ret,[2],5.5%
same,WBC,[2],102 x10_2/uL
same,APTT,[3],16.3 s
same,Bas,[3],0%
same,Eos,[3],0.6%
same,Fbg,[3],267 mg/dL
same,Hb,[3],13.9 g/dL
same,Ht,[3],41.3%
same,Lym,[3],77.6%
same,MCH,[3],21 pg
same,MCHC,[3],33.8%
same,MCV,[3],62.2 fL
same,Mono,[3],6%
same,Neu,[3],15.8%
same,PT,[3],11.8 s
same,Plat,[3],128 x10_4/uL
same,RBC,[3],663.8 x10_4/ul
same,Ret,[3],4.4%
same,WBC,[3],125.8 x10_2/uL
same,APTT,[4],17.1 s
same,Bas,[4],0%
same,Eos,[4],1%
same,Fbg,[4],281.8 mg/dL
same,Hb,[4],14.9 g/dL
same,Ht,[4],44%
same,Lym,[4],82.4%
same,MCH,[4],20 pg
same,MCHC,[4],33.8%
same,MCV,[4],59.1 fL
same,Mono,[4],5%
same,Neu,[4],11.6%
same,PT,[4],12 s
same,Plat,[4],122 x10_4/uL
same,RBC,[4],744.2 x10_4/ul
same,Ret,[4],2.6%
same,WBC,[4],118.2 x10_2/uL
same,LIVER,[2],13.6 g
same,LIVER,[3],17.5 g
same,LIVER,[4],19.1 g
same,A/G,[2],2.3
same,ALP,[2],1592.8 IU/L
same,ALT,[2],33.4 IU/L
same,AST,[2],63 IU/L
same,BUN,[2],18.4 mg/dL
same,CRE,[2],0.4 mg/dL
same,Ca,[2],11.4 mg/dL
same,Cl,[2],105.4 meq/L
same,DBIL,[2],0.012 mg/dL
same,GLC,[2],182 mg/dL
same,IP,[2],7.2 mg/dL
same,K,[2],4.8 meq/L
same,LDH,[2],111.6 IU/L
same,Na,[2],139.4 meq/L
same,PL,[2],149.6 mg/dL
same,RALB,[2],3.9 g/dL
same,TBIL,[2],0.02 mg/dL
same,TC,[2],77.4 mg/dL
same,TG,[2],148.2 mg/dL
same,TP,[2],5.6 g/dL
same,gamma-GTP,[2],0.4 IU/L
same,A/G,[3],2.1
same,ALP,[3],983.2 IU/L
same,ALT,[3],33.4 IU/L
same,AST,[3],64.2 IU/L
same,BUN,[3],19 mg/dL
same,CRE,[3],0.3 mg/dL
same,Ca,[3],11.8 mg/dL
same,Cl,[3],104.4 meq/L
same,DBIL,[3],0.014 mg/dL
same,GLC,[3],180.4 mg/dL
same,IP,[3],6.9 mg/dL
same,K,[3],4.5 meq/L
same,LDH,[3],99.8 IU/L
same,Na,[3],137 meq/L
same,PL,[3],151.2 mg/dL
same,RALB,[3],4 g/dL
same,TBIL,[3],0.022 mg/dL
same,TC,[3],74.2 mg/dL
same,TG,[3],190.4 mg/dL
same,TP,[3],6 g/dL
same,gamma-GTP,[3],0 IU/L
same,A/G,[4],1.9
same,ALP,[4],871.8 IU/L
same,ALT,[4],31.8 IU/L
same,AST,[4],63.4 IU/L
same,BUN,[4],18.2 mg/dL
same,CRE,[4],0.5 mg/dL
same,Ca,[4],11.2 mg/dL
same,Cl,[4],104.6 meq/L
same,DBIL,[4],0.012 mg/dL
same,GLC,[4],180.8 mg/dL
same,IP,[4],6.6 mg/dL
same,K,[4],4.3 meq/L
same,LDH,[4],117.2 IU/L
same,Na,[4],141 meq/L
same,PL,[4],133.4 mg/dL
same,RALB,[4],4.1 g/dL
same,TBIL,[4],0.016 mg/dL
same,TC,[4],67.6 mg/dL
same,TG,[4],155.6 mg/dL
same,TP,[4],6.2 g/dL
same,gamma-GTP,[4],0.4 IU/L
same,TERMINAL_BW,[5],245.9 g
same,APTT,[5],15.9 s
same,Bas,[5],0%
same,Eos,[5],1%
same,Fbg,[5],275.4 mg/dL
same,Hb,[5],13.3 g/dL
same,Ht,[5],39.2%
same,Lym,[5],74%
same,MCH,[5],22 pg
same,MCHC,[5],33.9%
same,MCV,[5],64.9 fL
same,Mono,[5],7%
same,Neu,[5],18.4%
same,PT,[5],11.7 s
same,Plat,[5],139 x10_4/uL
same,RBC,[5],604.8 x10_4/ul
same,Ret,[5],9.7%
same,WBC,[5],124 x10_2/uL
same,LIVER,[5],12.8 g
same,A/G,[5],2.2
same,ALP,[5],1454.2 IU/L
same,ALT,[5],31.8 IU/L
same,AST,[5],66.2 IU/L
same,BUN,[5],17.8 mg/dL
same,CRE,[5],0.4 mg/dL
same,Ca,[5],11.4 mg/dL
same,Cl,[5],104.6 meq/L
same,DBIL,[5],0.014 mg/dL
same,GLC,[5],169.2 mg/dL
same,IP,[5],6.6 mg/dL
same,K,[5],5 meq/L
same,LDH,[5],98.2 IU/L
same,Na,[5],137.8 meq/L
same,PL,[5],155.2 mg/dL
same,RALB,[5],3.8 g/dL
same,TBIL,[5],0.02 mg/dL
same,TC,[5],82 mg/dL
same,TG,[5],125 mg/dL
same,TP,[5],5.6 g/dL
same,gamma-GTP,[5],0.2 IU/L
same,TERMINAL_BW,[6],262.8 g
same,TERMINAL_BW,[7],327.9 g
same,TERMINAL_BW,[8],396.2 g
same,APTT,[6],16.6 s
same,Bas,[6],0%
same,Eos,[6],1.4%
same,Fbg,[6],263.8 mg/dL
same,Hb,[6],14.2 g/dL
same,Ht,[6],41.9%
same,Lym,[6],78.4%
same,MCH,[6],21.5 pg
same,MCHC,[6],33.9%
same,MCV,[6],63.4 fL
same,Mono,[6],6.4%
same,Neu,[6],14.6%
same,PT,[6],11.9 s
same,Plat,[6],128.6 x10_4/uL
same,RBC,[6],662.2 x10_4/ul
same,Ret,[6],6.1%
same,WBC,[6],126.8 x10_2/uL
same,APTT,[7],16.3 s
same,Bas,[7],0%
same,Eos,[7],0.8%
same,Fbg,[7],263.8 mg/dL
same,Hb,[7],14.3 g/dL
same,Ht,[7],42.2%
same,Lym,[7],74.8%
same,MCH,[7],21.6 pg
same,MCHC,[7],33.9%
same,MCV,[7],63.5 fL
same,Mono,[7],10.4%
same,Neu,[7],14.2%
same,PT,[7],12.2 s
same,Plat,[7],124 x10_4/uL
same,RBC,[7],665.2 x10_4/ul
same,Ret,[7],4.2%
same,WBC,[7],114.6 x10_2/uL
same,APTT,[8],16.4 s
same,Bas,[8],0%
same,Eos,[8],1%
same,Fbg,[8],294.4 mg/dL
same,Hb,[8],15.6 g/dL
same,Ht,[8],46.4%
same,Lym,[8],73.4%
same,MCH,[8],20.5 pg
same,MCHC,[8],33.6%
same,MCV,[8],60.9 fL
same,Mono,[8],6.6%
same,Neu,[8],18.8%
same,PT,[8],12 s
same,Plat,[8],105.6 x10_4/uL
same,RBC,[8],763.2 x10_4/ul
same,Ret,[8],2.9%
same,WBC,[8],117.4 x10_2/uL
same,LIVER,[6],13.7 g
same,LIVER,[7],17.8 g
same,LIVER,[8],21.6 g
same,A/G,[6],2.3
same,ALP,[6],1317.4 IU/L
same,ALT,[6],39.4 IU/L
same,AST,[6],72 IU/L
same,BUN,[6],17 mg/dL
same,CRE,[6],0.3 mg/dL
same,Ca,[6],11.5 mg/dL
same,Cl,[6],104.2 meq/L
same,DBIL,[6],0.014 mg/dL
same,GLC,[6],167.8 mg/dL
same,IP,[6],7.2 mg/dL
same,K,[6],4.8 meq/L
same,LDH,[6],116.8 IU/L
same,Na,[6],140.2 meq/L
same,PL,[6],150.4 mg/dL
same,RALB,[6],4 g/dL
same,TBIL,[6],0.016 mg/dL
same,TC,[6],77.6 mg/dL
same,TG,[6],115 mg/dL
same,TP,[6],5.7 g/dL
same,gamma-GTP,[6],0.8 IU/L
same,A/G,[7],2.2
same,ALP,[7],1140.6 IU/L
same,ALT,[7],38 IU/L
same,AST,[7],79.2 IU/L
same,BUN,[7],18.6 mg/dL
same,CRE,[7],0.4 mg/dL
same,Ca,[7],11.8 mg/dL
same,Cl,[7],104.6 meq/L
same,DBIL,[7],0.014 mg/dL
same,GLC,[7],167.8 mg/dL
same,IP,[7],6 mg/dL
same,K,[7],4.1 meq/L
same,LDH,[7],134.2 IU/L
same,Na,[7],138 meq/L
same,PL,[7],151.2 mg/dL
same,RALB,[7],4.1 g/dL
same,TBIL,[7],0.02 mg/dL
same,TC,[7],67.4 mg/dL
same,TG,[7],208.6 mg/dL
same,TP,[7],6 g/dL
same,gamma-GTP,[7],0 IU/L
same,A/G,[8],1.9
same,ALP,[8],925 IU/L
same,ALT,[8],45.6 IU/L
same,AST,[8],93.8 IU/L
same,BUN,[8],20.8 mg/dL
same,CRE,[8],0.5 mg/dL
same,Ca,[8],11.4 mg/dL
same,Cl,[8],105 meq/L
same,DBIL,[8],0.018 mg/dL
same,GLC,[8],167.6 mg/dL
same,IP,[8],5 mg/dL
same,K,[8],4.2 meq/L
same,LDH,[8],160 IU/L
same,Na,[8],140.2 meq/L
same,PL,[8],144.4 mg/dL
same,RALB,[8],4.1 g/dL
same,TBIL,[8],0.026 mg/dL
same,TC,[8],69 mg/dL
same,TG,[8],177.8 mg/dL
same,TP,[8],6.3 g/dL
same,gamma-GTP,[8],0.6 IU/L
